Consider one substance from US6610289B2, “Mutated herpes simplex virus type 1 thymidine kinases and uses thereof” (The Board of Trustees of the University of Arkansas, priority 1998, dated 2003).

The subject of data set [1] is HSV-1 TK. The data set can be described thus: Substrate screen: phosphorylation of thymidine, TMP, GCV, ACV, dC, AZT by partially purified HSV-1 TKs. The format is biochemical, herpes simplex virus type 1. As to the method:
The activity of the purified HSV-1 TK was determined using the following standard reaction mixture for thymidine as a substrate (12): 3 μg of protein, 4 μM [^3H-methyl]thymidine (0.1 mCi/mmol), 20 mM potassium phosphate, pH 7.6, 1 mM DTT, 5 mM ATP, 5 mM MgCl2, 25 mM NaF, 40 mM KCl, and 0.5 mg/ml BSA in a total volume of 25 μl for 10 minutes at 37° C. To identify phosphorylated products, 20 μl of the reaction mixture was loaded onto a DE-81 filter and dried, washed once in 1 mM ammonium formate, twice more in 95% ethanol, and counted for radioactivity (12). Radioactivity was determined using an LKB 1214 Rackbeta liquid scintillation counter and corrected for background using controls with enzyme incubated in the absence of ATP. For TMPK activity, 20 μM [^3H-methyl]TMP was substituted for thymidine in the above assay mixture, and [^3H]TDP product was determined by separation from [^3H]TMP on thin layer PEI-cellulose plates developed in 0.35M LiCl (21). Amount of product converted to TDP was quantitated by scintillation counting of the excised TMP and TDP spots. The filter binding assay was used to quantitate the phosphorylation of [^3H]dC (200) μM and [^3H]AZT (200 μM) with the four enzymes. To compare relative enzymatic activities for [^3H]GCV (50 μM) and [^3H]ACV (50 μM), reactions were loaded onto small DE-52 columns packed in Pasteur pipettes as previously described (22).
As an initial screen for activity, each expressed HSV-1 TK enzyme was assayed for phosphorylation of the following substrates: thymidine (4 μM), TMP (20 μM), ACV (50 μM), GCV (50 μM), deoxycytidine (dC, 200 μM), or 3′-azido-2′,3′dideoxythymidine (AZT, 200 μM). Enzymatic conditions for optimal wild-type HSV-1 TK activities were utilized, thus results presented in Table 1 for each substrate were normalized to 100% values for comparative purposes. As expected, the wild-type Gln-125 HSV-1 TK efficiently phosphorylated each of these substrates. For each mutant, there was a striking decrease in their ability to phosphorylate pyrimidine nucleosides, and minimal TMPK activity for the TMP substrate.

The target in data set [2] is T1, HSV-1 TK (Human herpesvirus 1, UniProt P0DTH5, Q125D).
T1 construct: made in house; host or cells: E. coli BL21SY211 (pET-9a derived pET-TK plasmids)
T1 sequence (P0DTH5 1-376 Q125D): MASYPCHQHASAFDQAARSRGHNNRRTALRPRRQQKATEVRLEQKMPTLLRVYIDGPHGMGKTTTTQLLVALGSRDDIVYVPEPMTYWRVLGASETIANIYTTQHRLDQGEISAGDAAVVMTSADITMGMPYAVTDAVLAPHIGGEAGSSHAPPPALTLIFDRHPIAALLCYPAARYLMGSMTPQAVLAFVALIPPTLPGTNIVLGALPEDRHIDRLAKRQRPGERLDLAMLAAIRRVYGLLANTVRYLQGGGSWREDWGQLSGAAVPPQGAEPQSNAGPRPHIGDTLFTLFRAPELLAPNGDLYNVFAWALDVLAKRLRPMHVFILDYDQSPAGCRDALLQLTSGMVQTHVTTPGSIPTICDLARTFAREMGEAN
The format is biochemical, herpes simplex virus type 1. Conditions: substrate GCV. As to the method:
(§1) For determination of Km values of thymidine and GCV for the four enzymes, the filter binding assay was utilized. The basic reaction components were as above, and the following enzyme concentrations, substrate ranges and times were used under linear initial velocity conditions: for [^3H]thymidine: parent Gln-125TK: 0.1 μg TK, 0.1-4 μM, 10 min; Asn-125TK: 0.2 μg TK, 0.25-10 μM, 15 min; Asp-125TK: 4 μg TK, 0.1-2.5 μM, 30 min; Glu-125TK 0.5 μg TK, 0.5-2.5 μM, 15 min. For [^3H]GCV: parent Gln-125TK: 2 μg TK, 5-100 μM, 15 min; Asn-125TK: 0.6 μg TK, 0.5-15 μM, 15 min; Asp-125TK: Not determined; Glu-125TK 4 μg TK, 50-1000 μM, 25 min. Each reaction was done in triplicate. For calculation of kinetic constants, non-linear regression Michaelis-Menten analyses were done using PSI-PLOT version 5.0 (Poly Software International).
(§2) Unlike the substrate screening assays presented in Table 1, linear velocity conditions for each enzyme and substrate were established prior to Km determinations.

Data set [3] deals with HSV-1 TK. The format is biochemical, herpes simplex virus type 1. To be noted: substrate thymidine. The method, then: as §1, §2
In a further data set the test system is HCT-116 cells. The data set can be described thus: MTT cell viability, sensitivity to GCV killing, HCT-116 cell lines expressing HSV-1 TKs. Conditions: HCT-116, GCV 0-5 μM, 4 days, FIG. 3B. The format is cell-based, human. As to the method:
Cells were plated in triplicate and exposed to 0, 0.05, 0.5 or 5 μM GCV for four days. Cell viabilities were determined using MTT dye. […] FIG. 3A: NIH3T3 cell lines, FIG. 3B: HCT-116 cell lines; parental cells (noTK, dark bands); Asp125TK (Asp-#, brick band); Glu-125TK (Glu-#, cross-hatch bands); Asn-125TK (Asn-#, gray bands); wild-type HSV-1 TK (WT-#, striped bands).
A Moloney murine leukemia virus derived plasmid for the expression of HSV-TK, termed pLENTK, has been previously constructed (24). A unique BspEI-MluI restriction fragment within the HSV-TK sequence of pLENTK contains the Gln-125 mutation site. This fragment was removed from wild-type plasmid and replaced with the analogous fragments encoding each mutant. […] Along with wild-type HSV-1 TK plasmid, each mutant-TK plasmid was transfected individually into the murine fibroblast cell line, NIH 3T3, and the human colon tumor cell line, HCT-116, using lipofectin reagent (GIBCO/BRL) (2 μg plasmid, 14 μl lipid per 1×10^6 cells). Cells were maintained in RPMI 1640 media and selected with G418 (200 μg/ml for 2 weeks) as previously described (24). At least eight individual G418 resistant cell clones were picked and grown up for further characterization. Each clone was screened initially for growth inhibition by 25 μM GCV. Those clones that were sensitive were further analyzed for HSV-TK protein expression by Western blot analysis with a polyclonal, rabbit anti-HSV-TK antibody (a gift from Dr. Margaret Black). For each clone, cell numbers were normalized to 1×10^6, and equal protein loading was confirmed for each sample by gel staining. Blotted HSV-1 TK protein bands were visualized on film using ECL chromophore reagents (Amersham). For analysis of GCV sensitivity of different clones, NIH3T3 and HCT-116 cell sets were seeded in 96 well plates in 0.1 ml media (15,000 cells/well). The next day, a dose range of GCV (0.005 to 5 mM, n=3) was added in 0.1 ml media. After 4 days, MTT ([…]) was added for 1.5 hours, followed by DMSO solubilization of the cells and absorbance reading at 540 nm (25).
cDNA for each mutant was incorporated into a Moloney murine leukemia virus plasmid (24). The plasmids for wild-type HSV-1 TK and each mutant were individually transfected into either NIH3T3 cells or the human colon tumor cell line, HCT-116. Following drug selection in G418, individual cell clones were evaluated for sensitivity to GCV and relative levels of HSV-1 TK expression. Using an HSV-1 TK antibody and extracts normalized by protein and cell number, the relative expression levels of HSV-1 TK in each cell clone were determined.

Read-outs that look alike come from different tables or passages of the source.

On to Asp-125, for which the “Product formation ACVMP” value in the data set on HSV-1 TK [1] (substrate ACV 50 μM) is listed as 14 % of wild-type Gln-125. The “Product formation AZTMP” value with HSV-1 TK [1] (substrate AZT 200 μM) is 8 % of wild-type Gln-125. Also, the “Product formation GCVMP” value in the data set with HSV-1 TK [1] (substrate GCV 50 μM) is reported as 0.7 % of wild-type Gln-125. In the data set on HSV-1 TK [1] (substrate TMP 20 μM), the “Product formation TDP (TMPK activity)” value is on record as 4 % of wild-type Gln-125. Further, the “Product formation dCMP” value in the data set on HSV-1 TK [1] (substrate dC 200 μM) is given as >0.1 % of wild-type Gln-125. In addition, in the data set on HSV-1 TK [1] (substrate thymidine 4 μM), the “Product formation TMP” value is on record as 0.5 % of wild-type Gln-125. For the same substance, the “Ganciclovir phosphorylation kinetics (in words)” value in the data set with HSV-1 TK [2] is “poorly phosphorylate ganciclovir, but with non-linear kinetics”. The “Ganciclovir phosphorylation kinetics (in words)” value with HSV-1 TK [2] (listed as Asp-125TK) is reported as “no linear velocity conditions could be established”. In addition, in the data set on HSV-1 TK [3], the “Change of kcat for thymidine relative to wild-type (in words)” value is “doubled”, the “Increase of Km for thymidine relative to wild-type enzyme” value was ~6000 fold and the kcat thymidine came out at 0.11 s⁻¹. In addition, in the data set with HSV-1 TK [3] (read-out: Km thymidine), the Km worked out at 6 mM. In addition, the “Dose dependent cell killing by GCV (cell viability, MTT)” value in the data set on HCT-116 cells is reported as “little effect on cell viability”.
